Measurements reported in ChEMBL document CHEMBL3612061, “Imidazopyridines as a source of biological activity and their pharmacological potentials-Infrared and Raman spectroscopic evidence of their content in pharmaceuticals and plant materials” (Bioorg Med Chem, 2015).
≈ marks a conversion by molar mass, not a printed value.

Tested on: Vaccinia virus
Test: Antiviral activity against Vaccinia virus assessed as protection against virus-induced cytopathogenic effect by cell based assay
Type: functional
Settings: Orthopoxvirus vaccinia; read-out: ID50 (the source's name)

With `Nc1nccc2c1ncn2C1C=C(CO)C(O)C1O` (stereo unspecified) [3-DEAZANEPLANOCIN A] the IC50 was 0.02 µg/mL (≈ 0.0763 µM).
